Laboratory results reported in patent publication US20230052152A1, “COMPOUNDS FOR TREATMENT OF ALZHEIMER'S DISEASE” (SULFATEQ B.V., priority 2019, published 2023).
“Also recorded” adds a separate entry of the source.

How the values were obtained:
[1] = test system: SH-SY5Y cells; assay: Dopamine-induced excitotoxicity, differentiated SH-SY5Y neuronal-like cells, Neutral Red viability; format: cell-based; conditions: Homo sapiens, dopamine 24 h; for EC50: 30 min pre-incubation, Neutral Red viability; for Emax: maximal restoration of viability
Description: (§1) Human SH-SY5Y neuroblastoma cells (ATCC #CRL-2266) were maintained in DMEM medium containing 10% fetal bovine serum and 1% Penicillin-Streptomycin solution (#P4333, Sigma-Aldrich, St. Louis, Mo.) and passaged when the cultures reach a confluency of 70%. Prior to experiments, SH-SY5Y cells were differentiated by serum reduction (to 1%) and stimulation with 10 μM retinoic acid (#R7882, Sigma-Aldrich, St. Louis, Mo.) for 72 hours. Differentiated SH-SY5Y cells were seeded at 0.6·10^5 cells/cm^2 for all experiments.
(§2) Differentiated SH-SY5Y cells were pre-incubated with SUL compounds (dose range 8·10^−4 to 1·10^−8 M) under standard culture conditions for 30 min and then stimulated with either 1-glutamate (60 mM; #12843-0, Sigma-Aldrich, St. Louis, Mo.) or dopamine (100 μM; #H8502, Sigma, St. Louis, Mo.) for an additional 24 h. Neutral Red Assay Solution (#N2889, Sigma-Aldrich, St. Louis, Mo.) was added to the cultures at a 10% (v/v) concentration during the final 4 hours of culture. Cells were washed with warm PBS and Neutral red solubilized in acid ethanol (1% acetic acid in 50% EtOH). Absorbances were recorded at 540 nm in a CLARIOStar Plus plate reader (BMG Labtech, Germany).
(§3) All experiments were performed in triplicate per condition and averaged. Data obtained from two individual experiments were used for evaluation in GraphPad Prism 8.0 (GraphPad Software Inc, Ca). 4 parameter non-linear regression was used to determine the efficacy and potency of SUL compounds to reduce the excitotoxicity induced by either 1-glutamate or dopamine.
Differentiated SH-SY5Y neuroblastoma cells were stimulated with 150 μM dopamine to induce excitotoxicity.

[2] = test system: SH-SY5Y cells; assay: Glutamate-induced excitotoxicity, differentiated SH-SY5Y neuronal-like cells, Neutral Red viability; format: cell-based, human; conditions: 60 mM glutamate, 10^−3 to 10^−8 M
[3] = test system: SH-SY5Y cells; assay: as above; format: cell-based; conditions: Homo sapiens, 60 mM glutamate 24 h; for EC50: 30 min pre-incubation, Neutral Red viability; for Emax: maximal restoration of viability
Description: as §1, §2, §3
SH-SY5Y neuroblastoma cells were differentiated into neuronal-like cells according to established protocols and stimulated with 60 mM glutamate to induce excitotoxicity.

[4] = test system: WT and APP/PS1 mice; assay: Fear conditioning (hippocampal dependent context memory test), freezing; format: in vivo, mouse; conditions: chronic oral via food 2.5 to 6 moa, versus vehicle food
Description: (§4) The APP/PS1 mouse model is a widely used A-beta pathology model for Alzheimer's disease (AD) (1 of the 2 main neuropathological hallmarks of AD). These mice contain human transgenes for APP (Swedish mutation) and PSEN1 (L166P mutation), which will lead to pathological amyloid deposition in the brain and impairments in hippocampal dependent memory and Long Term Potentiation (LTP) starting at ˜3 months of age (3 moa).
(§5) The effectiveness of SUL-138 ((6-hydroxy-2,5,7,8-tetramethylchroman-2-yl)(4-(2-hydroxyethyl)piperazin-1-yl)methanone) in relieving/preventing common pathology in the APP/PS1 model was tested. The effect on memory was tested in a hippocampal dependent context test (Fear conditioning (FC)) and synaptic connectivity was tested via electrophysiological LTP (Long-term potentiation) measurements. Both are impaired in this mouse model under basal conditions. In addition, Phenotypers (Sylics) were used to exclude that SUL-138 induces atypical behavior after chronic oral treatment.
Wild type (WT) and APP/PS1 mice were each divided in 2 groups, either receiving vehicle or SUL-138 via their food. Group size amounted 12 animals. […]
FC: mice were exposed to a context for 2 min after which they received a 0.7 mA footshock. […] 24 h later mice were put in the same context and freezing levels were measured for 2 min.
Memory was assessed at 6 moa by measuring freezing following context acquisition.

[5] = test system: WT and APP/PS1 mice; assay: Phenotypers spontaneous behavior after chronic oral treatment; format: in vivo, mouse; conditions: 3 days in phenotypers
Description: as §5
(§6) Wild type (WT) and APP/PS1 mice were each divided in 2 groups, either receiving vehicle or SUL-138 via their food. Group size amounted 12 animals. Based on mouse weight of ˜30 g, food intake of ˜5 g/day and desired oral intake of 30 mg/day/kg, food pellets were sprayed with SUL-138 in water with 0.0145% ethanol at 1 g SUL-138 in 5 kg food. Vehicle food was prepared by spraying with the same volume of 0.0145% ethanol containing water.
Phenotypers (provided by Sylics, Amsterdam, Netherlands): Mice were housed in the phenotypers for 3 days during which spontaneous behavior: activity, dark/light, habituation, kinematics, light dark phase transition pattern and sheltering were measured.

[6] = test system: prostaglandin synthases and the thromboxane synthase A; assay: Hippocampal protein expression of prostaglandin synthases and thromboxane synthase A; format: in vivo, mouse; conditions: hippocampal tissue, wildtype or APP/PS1 mice
Description: Hippocampal tissue from wildtype and APP/PS1 mice was examined for the protein expression of prostaglandin synthases and the thromboxane synthase A. Peptides resembling the prostaglandin synthase PTGS1, PTGES2, PTGES3, and PTGFS were found in the hippocampal tissue of both wildtype and APP/PS1 mice (Table 4). No protein fragments of PTGS2, PTGDS, PTGES1, PTGIS and TXA could be found.

[7] = test system: APP/PS1 mice; assay: Plaque load (anti-Amyloid beta 6E10 staining of hippocampal slices); format: in vivo, mouse; conditions: three months oral, versus vehicle
Description: APP/PS1 (n=10) and wildtype mice (WT, n=10) mice were treated, either with vehicle or SUL-138. Mice were treated for 3 months starting at 3 months of age with either SUL-138 or vehicle treated food pellets. The mice were sacrificed at 6 months of age, the age at which (among others) hippocampal dependent memory impairment and apparent plaque load are expected.
4% PFA perfused brains, stored on sucrose, were sliced at […] using a cryostat (−20° C.; Leica). Hippocampal slices (n=2/animal; 5 animals/group) were washed 3×10 min with 1× PBS, and then blocked for 1 h in Blocking solution (10 mL 1× PBS+500 μL normal Goat Serum+0.250 g Bovine Serum Albumin+20 μL Triton-100). The slices were incubated overnight with anti-Amyloid beta (6E10) (ITK Diagnostics, 1:400), washed 3×10 min with 1× PBS and then incubated with secondary Goat anti-mouse Alexa fluorescent 488 antibody (Sigma-Aldrich, 1:250) for 2 h. Then slices were washed 3×10 min with 1× PBS and mounted on slides.
Slices were imaged using the Zeiss Cell Discover 7 high content microscope with LSM900 confocal head. Using Fiji, both hippocampi were selected separately for 5 animals per group (yellow line in FIG. 3A) and number and size of plaques were measured (FIG. 3B, C). The mean number of plaques and plaque size per animal were used for statistical analyses in GraphPad 8 using Student's t-test, one-sided.

[8] = Bioavailability in brain; format: in vivo
[9] = test system: WT and APP/PS1 mice; assay: Long-term potentiation (LTP) in acute hippocampal slices after chronic oral treatment; format: in vivo, mouse; conditions: 3×100 Hz stimulation, p<0.05
Description: as §4, §6
(§7) Mice were treated chronically between 2.5 moa (pre-pathology/memory deficit) and 6 moa (age at which clear neuropathology and memory deficits occur) prior to testing.
LTP: Acute coronal hippocampal slices were kept in artificial CSF and LTP was measured after 3×100 Hz stimulation.
Between 8-14 hippocampal slices per group (2A: WT ctrl, WT SUL-138, 2B: APP ctrl, APP SUL-138) received LTP evoked by 3×100 Hz stimulation (tetanus) of 1 sec separated by 20 sec. The slope was measured for 60 min. LTP was expressed as a percentage of baseline. […]

[10] = Overall welfare and body weight during chronic oral treatment; format: in vivo, mouse; conditions: vehicle versus SUL-138 treated animals
Description: as §6, §7

Compound | EC50 [1] [nM] | Emax [1] [%] | Effectiveness in increasing viability of glutamate-challenged cells versus the other SUL-compounds [2] | EC50 [3] [nM] | Emax [3] [%] | Freezing levels (memory) ([4]; APP/PS1 mice) | Freezing levels (memory) ([4]; WT mice) | Spontaneous behavior (activity, dark/light, habituation, kinematics, light dark phase transition pattern, sheltering) [5] | Protein expression of prostaglandin synthesizing enzymes [6] | Plaque size ([7]; p=0.0021) | Number of plaques ([7]; p=0.0138) | Bioavailability in brain [8] | LTP maintenance (min 30-60) ([9]; APP mice) | LTP maintenance (min 30-60) ([9]; WT mice) | Overall welfare [10]
Cc1c(C)c2c(c(C)c1O)CCC(C)(C(=O)O)O2 (centres unmarked) [SUL-11, 6-hydroxy-2,5,7,8-tetramethylchroman-2-carboxylic acid, reference compound] | 8350 | 79.5 | clearly less effective | 4620 | 76.7 | – | – | – | – | – | – | – | – | – | –
Cc1c(C)c2c(c(C)c1O)CC[C@@](C)(C(=O)N[C@@H]1CCCNC1)O2 [SUL-13, (S)-6-hydroxy-2,5,7,8-tetramethyl-N-((R)-piperidin-3-yl)chromane-2-carboxamide] | 324 | 91.9 | – | 3820 | 100 | – | – | – | – | – | – | – | – | – | –
Cc1c(C)c2c(c(C)c1O)CC[C@@](C)(C(=O)N1CCN(CCO)CC1)O2 [SUL-138, (S)-(6-hydroxy-2,5,7,8-tetramethylchroman-2-yl)(4-(2-hydroxyethyl)piperazin-1-yl)methanone] | 660 | 100 | – | 1420 | 100 | increased; also recorded: restored to WT levels | increased | did not induce differences | did not alter | reduced | reduced | appears to be high | significantly (p<0.05) higher; also recorded: restore in APP/PS1 mice memory and LTP to control levels | significantly (p<0.05) higher | did not show differences
Cc1c(C)c(O)c(CC[C@@](C)(O)C(=O)N2CCN(CCO)CC2)c(C)c1O [SUL-138M2, 4-(2,5-dihydroxy-3,4,6-trimethylphenyl)-2-hydroxy-1-(4-(2-hydroxyethyl)piperazin-1-yl)-2-methylbutan-1-one] | 1690 | 94.7 | – | 4430 | 100 | – | – | – | – | – | – | – | – | – | –
Cc1c(C)c2c(c(C)c1O)CC[C@](C)(C(=O)N1CCNCC1)O2 [SUL-150, (R)-(6-hydroxy-2,5,7,8-tetramethylchroman-2-yl)(piperazin-1-yl)methanone] | 55.5 | 100 | – | 122 | 100 | – | – | – | – | – | – | – | – | – | –
Cc1c(C)c2c(c(C)c1O)CC[C@@](C)(C(=O)N1CCNCC1)O2 [SUL-151, (S)-(6-hydroxy-2,5,7,8-tetramethylchroman-2-yl)(piperazin-1-yl)methanone] | 69.2 | 100 | – | 96.1 | 100 | – | – | – | – | – | – | – | – | – | –
